Measured values as given in ChEMBL document CHEMBL5724914, “Linking interpersonal differences in gut microbiota composition and drug biotransformation activity” (2024).

Experiments:
[1] = The drug is tested on Z-005 corresponding to metagenome with ENA study accession number: PRJEB37062 and ENA sample accession number: ERS12561805 for biotransformation under anaerobic condition. The drug concentrations were measured over 9 timepoints collected between 0 and 24 hours of incubation by liquid-chromatography-coupled mass spectrometry (LC–MS); conditions: 2 µM
[2] = The drug is tested on Z-026 corresponding to metagenome with ENA study accession number: PRJEB37062 and ENA sample accession number: ERS12561825 for biotransformation under anaerobic condition. The drug concentrations were measured over 9 timepoints collected between 0 and 24 hours of incubation by liquid-chromatography-coupled mass spectrometry (LC–MS); conditions: 2 µM
[3] = The drug is tested on WLS-039 corresponding to human gut metagenome with ENA study accession number: PRJEB37062 and ENA sample accession number: ERS12561746 for biotransformation under anaerobic condition. The drug concentrations were measured over 9 timepoints collected between 0 and 24 hours of incubation by liquid-chromatography-coupled mass spectrometry (LC–MS); conditions: 2 µM
[4] = The drug is tested on Z-007 corresponding to rat gut metagenome with ENA study accession number: PRJEB37062 and ENA sample accession number: ERS12561807 for biotransformation under anaerobic condition. The drug concentrations were measured over 9 timepoints collected between 0 and 24 hours of incubation by liquid-chromatography-coupled mass spectrometry (LC–MS); conditions: 2 µM
[5] = human gut metagenome, 24 h, 2 µM
[6] = human gut metagenome, 24 h, 2 µM; remark: listed apart in the source
[7] = The drug is tested on Z-009 corresponding to pig gut metagenome with ENA study accession number: PRJEB37062 and ENA sample accession number: ERS12561809 for biotransformation under anaerobic condition. The drug concentrations were measured over 9 timepoints collected between 0 and 24 hours of incubation by liquid-chromatography-coupled mass spectrometry (LC–MS); conditions: 2 µM
[8] = The drug is tested on WLS-240 corresponding to human gut metagenome with ENA study accession number: PRJEB37062 and ENA sample accession number: ERS12561773 for biotransformation under anaerobic condition. The drug concentrations were measured over 9 timepoints collected between 0 and 24 hours of incubation by liquid-chromatography-coupled mass spectrometry (LC–MS); conditions: 2 µM
[9] = human gut metagenome, 24 h, 2 µM; remark: listed apart in the source
[10] = The drug is tested on WLS-006 corresponding to human gut metagenome with ENA study accession number: PRJEB37062 and ENA sample accession number: ERS12561741 for biotransformation under anaerobic condition. The drug concentrations were measured over 9 timepoints collected between 0 and 24 hours of incubation by liquid-chromatography-coupled mass spectrometry (LC–MS); conditions: 2 µM
[11] = human gut metagenome, 24 h, 2 µM; remark: listed apart in the source
[12] = human gut metagenome, 24 h, 2 µM; remark: listed apart in the source
[13] = human gut metagenome, 24 h, 2 µM; remark: listed apart in the source
[14] = human gut metagenome, 24 h, 2 µM; remark: listed apart in the source
[15] = human gut metagenome, 24 h, 2 µM; remark: listed apart in the source
[16] = The drug is tested on Z-028 corresponding to mouse gut metagenome with ENA study accession number: PRJEB37062 and ENA sample accession number: ERS12561827 for biotransformation under anaerobic condition. The drug concentrations were measured over 9 timepoints collected between 0 and 24 hours of incubation by liquid-chromatography-coupled mass spectrometry (LC–MS); conditions: 2 µM
[17] = The drug is tested on Z-017 corresponding to mouse gut metagenome with ENA study accession number: PRJEB37062 and ENA sample accession number: ERS12561816 for biotransformation under anaerobic condition. The drug concentrations were measured over 9 timepoints collected between 0 and 24 hours of incubation by liquid-chromatography-coupled mass spectrometry (LC–MS); conditions: 2 µM
[18] = The drug is tested on Z-030 corresponding to mouse gut metagenome with ENA study accession number: PRJEB37062 and ENA sample accession number: ERS12561829 for biotransformation under anaerobic condition. The drug concentrations were measured over 9 timepoints collected between 0 and 24 hours of incubation by liquid-chromatography-coupled mass spectrometry (LC–MS); conditions: 2 µM
[19] = The drug is tested on Z-004 corresponding to metagenome with ENA study accession number: PRJEB37062 and ENA sample accession number: ERS12561804 for biotransformation under anaerobic condition. The drug concentrations were measured over 9 timepoints collected between 0 and 24 hours of incubation by liquid-chromatography-coupled mass spectrometry (LC–MS); conditions: 2 µM
[20] = human gut metagenome, 24 h, 2 µM; remark: listed apart in the source
Further: call rule not given here.

Row | Compound | Bacterial Biotransformation [1] | Bacterial Biotransformation [2] | Bacterial Biotransformation [3] | Bacterial Biotransformation [4] | Bacterial Biotransformation [5] | Bacterial Biotransformation [6] | Bacterial Biotransformation [7] | Bacterial Biotransformation [8] | Bacterial Biotransformation [9] | Bacterial Biotransformation [10] | Bacterial Biotransformation [11] | Bacterial Biotransformation [12] | Bacterial Biotransformation [13] | Bacterial Biotransformation [14] | Bacterial Biotransformation [15] | Bacterial Biotransformation [16] | Bacterial Biotransformation [17] | Bacterial Biotransformation [18] | Bacterial Biotransformation [19] | Bacterial Biotransformation [20]
1 | CCN(CC)CCNC(=O)c1ccc(NC(C)=O)cc1 [ACECAINIDE] | Compound NOT metabolized | Compound NOT metabolized | Compound NOT metabolized | Compound NOT metabolized | Compound NOT metabolized | Compound NOT metabolized | Compound NOT metabolized | Compound metabolized | Compound NOT metabolized | Compound NOT metabolized | Compound NOT metabolized | Compound metabolized | Compound metabolized | Compound NOT metabolized | Compound NOT metabolized | Compound NOT metabolized | Compound NOT metabolized | Compound NOT metabolized | Compound NOT metabolized | Compound metabolized
2 | C[N+]12CCC(CC1)C(OC(=O)C(O)(c1ccccc1)c1ccccc1)C2.[Br-] (stereo not given) [CLIDINIUM BROMIDE] | Compound NOT metabolized | Compound NOT metabolized | Compound metabolized | Compound NOT metabolized | Compound NOT metabolized | Compound NOT metabolized | Compound metabolized | Compound metabolized | Compound NOT metabolized | Compound NOT metabolized | Compound metabolized | Compound metabolized | Compound metabolized | Compound NOT metabolized | Compound metabolized | Compound NOT metabolized | Compound NOT metabolized | Compound NOT metabolized | Compound NOT metabolized | Compound NOT metabolized
3 | Clc1cccc(Cl)c1N=C1NCCN1 [CLONIDINE] | Compound NOT metabolized | Compound NOT metabolized | Compound NOT metabolized | Compound NOT metabolized | Compound NOT metabolized | Compound NOT metabolized | Compound metabolized | Compound metabolized | Compound metabolized | Compound metabolized | Compound NOT metabolized | Compound metabolized | Compound metabolized | Compound NOT metabolized | Compound NOT metabolized | Compound NOT metabolized | Compound NOT metabolized | Compound NOT metabolized | Compound metabolized | Compound metabolized
4 | O=C(CCCN1CCC2(CC1)C(=O)NCN2c1ccccc1)c1ccc(F)cc1 [SPIPERONE] | Compound NOT metabolized | Compound NOT metabolized | Compound NOT metabolized | Compound NOT metabolized | Compound NOT metabolized | Compound NOT metabolized | Compound metabolized | Compound NOT metabolized | Compound metabolized | Compound metabolized | Compound NOT metabolized | Compound NOT metabolized | Compound metabolized | Compound NOT metabolized | Compound NOT metabolized | Compound NOT metabolized | Compound NOT metabolized | Compound NOT metabolized | Compound NOT metabolized | Compound metabolized
5 | CCc1oc2ccccc2c1C(=O)c1cc(Br)c(O)c(Br)c1 [BENZBROMARONE] | Compound metabolized | Compound NOT metabolized | Compound metabolized | Compound NOT metabolized | Compound NOT metabolized | Compound metabolized | Compound NOT metabolized | Compound metabolized | Compound metabolized | Compound metabolized | Compound metabolized | Compound metabolized | Compound metabolized | Compound NOT metabolized | Compound metabolized | Compound metabolized | Compound NOT metabolized | Compound NOT metabolized | Compound NOT metabolized | Compound metabolized
6 | CC(=O)O[C@]1(C(C)=O)CC[C@H]2[C@@H]3C=C(C)C4=CC(=O)CC[C@]4(C)[C@H]3CC[C@@]21C [MEGESTROL ACETATE] | Compound metabolized | Compound metabolized | Compound metabolized | Compound metabolized | Compound metabolized | Compound metabolized | Compound metabolized | Compound metabolized | Compound metabolized | Compound metabolized | Compound metabolized | Compound metabolized | Compound metabolized | Compound metabolized | Compound metabolized | Compound metabolized | Compound metabolized | Compound NOT metabolized | Compound metabolized | Compound metabolized
